IC50 and IC90 data for 41 compounds are collected here from ChEMBL document CHEMBL4483862, “Open-source discovery of chemical leads for next-generation chemoprotective antimalarials” (2018).

By pIC50 is commonly meant the negative decadic logarithm of the IC50, by convention in mol/L. Usually IC90 stands for the concentration at which the effect reaches the 90% level.

pIC50: −log10 of the molar value.

The assay concerns Plasmodium berghei. Put plainly: Luciferase/luciferin-expressing antifolate-resistant parasites were used to infect a culture of HepG2 cells that were pre-incubated with compounds. Infected hepatocytes emit light due to the luciferase reaction. Assay results are presented as the percent inhibition of light emission compared to control. […]. Type of assay: functional. To be noted: sporozoite; for IC90: read-out: LUCIFERASE INFECTION ASSAY - IC90.

[1] abbreviates: read-out: LUCIFERASE INFECTION ASSAY - IC50.

Turning to `COc1cccc(-c2cc(=O)n3c(nc4ccccc43)[nH]2)c1`, the IC90 is more than 11.3 µM. The pIC50 under setting [1] is less than 4.95.
Take `c1ccc2cc(OCCNc3ncnc4sccc34)ccc2c1`: the IC90 was found to be 3.89 µM. The negative-log IC50 (pIC50) (HEPG2TOX_HILL_SLOPE 0.735, HEPG2TOX_R_SQUARED 0.741, PBLUC_HILL_SLOPE 1.1, PBLUC_R_SQUARED 0.73, read-out: LUCIFERASE INFECTION ASSAY - IC50) is 6.28.
`CCNc1ccc(C(=O)Nc2ccc3nc(C)sc3c2)cc1[N+](=O)[O-]`: the 90% effect concentration (IC90) was more than 10 µM. Besides, where the note is “HEPG2TOX_HILL_SLOPE 12, HEPG2TOX_R_SQUARED 0.881, PBLUC_HILL_SLOPE 13.1, PBLUC_R_SQUARED 0.554, read-out: LUCIFERASE INFECTION ASSAY - IC50”, the negative logarithm of the IC50 (pIC50) is 5.05.
Turning to `O=C(Nc1cc(Cl)cc(Cl)c1)Nc1cc(Cl)cc(Cl)c1`, the concentration for an effect of 90% (IC90) stood at 1.35 µM. Also, for the setting “HEPG2TOX_HILL_SLOPE 1.67, HEPG2TOX_R_SQUARED 0.958, PBLUC_HILL_SLOPE 0.797, PBLUC_R_SQUARED 0.657, read-out: LUCIFERASE INFECTION ASSAY - IC50”, the pIC50 is 7.07.
For `Cn1c(Cc2ccccc2)nc2cnc(Nc3cccc(C(F)(F)F)c3)cc21`, the IC90 is more than 10 µM. Also, the pIC50 under setting [1] is less than 5.00.
The matching figures for `Nn1c(SC2CCCCC2=O)nnc1C1CCCCC1` (configuration not stated): more than 10 µM and less than 5.00.
Regarding `O=C(Nc1cc(C(F)(F)F)cc(C(F)(F)F)c1)Nc1cnn(-c2ccc([N+](=O)[O-])cc2)c1C(F)(F)F`, the IC90 is 3.21 µM. Moreover, the pIC50 (PBLUC_HILL_SLOPE 8.84, PBLUC_R_SQUARED 0.29, read-out: LUCIFERASE INFECTION ASSAY - IC50) was 5.60.
Take `CC(Sc1nnc(-c2ccc(C(C)(C)C)cc2)o1)C(=O)Nc1ncc(Cl)cc1Cl` (configuration not stated): the IC90 worked out at 3.61 µM. Further, the negative-log IC50 (pIC50) (HEPG2TOX_HILL_SLOPE 7.53, HEPG2TOX_R_SQUARED 0.526, PBLUC_HILL_SLOPE 15.5, PBLUC_R_SQUARED 0.267, read-out: LUCIFERASE INFECTION ASSAY - IC50) was 5.50.
As for `O=C(CN1CSCC1=O)Nc1nc2ccccc2[nH]1`, the concentration for an effect of 90% (IC90) is more than 10 µM. Moreover, the negative logarithm of the IC50 (pIC50) under setting [1] was less than 5.00.
Regarding `Cc1ccc(C(=O)Nc2nc3cc4c(cc3s2)OCCO4)s1`, the IC90 was more than 10 µM. For the same compound, the pIC50 (PBLUC_HILL_SLOPE 9.57, PBLUC_R_SQUARED 0.436, read-out: LUCIFERASE INFECTION ASSAY - IC50) was 5.07.
Consider `S=C(NCC1CCCO1)c1c(-c2ccccc2)c2c3n(c(COc4ccccc4)nn13)CCCC2` (configuration not stated), for which the IC90 came out at 9.41 µM. Moreover, the pIC50 (FFLUC_HILL_SLOPE 2.32, FFLUC_R_SQUARED 0.306, HEPG2TOX_HILL_SLOPE 7.94, HEPG2TOX_R_SQUARED 0.0665, PBLUC_HILL_SLOPE 11.7, PBLUC_R_SQUARED 0.258, read-out: LUCIFERASE INFECTION ASSAY - IC50) was 5.11.
With `c1cncc(-c2cn3c(-c4cccs4)cnc3cn2)c1`, the IC90 was more than 11.9 µM. The pIC50 under setting [1] was less than 4.92.
Regarding `O=C(Nc1ccc2c(c1)OCO2)C1CCN(Cn2nc3n(c2=O)CCCCC3)CC1`, the IC90 was more than 10 µM. Besides, the pIC50 under setting [1] is less than 5.00.
Consider `COC(OC)c1ccc(C#N)c(SCC(=O)c2ccc(Cl)cc2)n1`, for which the IC90 is more than 9.1 µM. Also, the pIC50 under setting [1] is less than 5.04.
The matching figures for `COCCN1C=C(C(=O)OC)C(c2cccc(O)c2)C(C(=O)OC)=C1`: more than 9.5 µM and less than 5.02.
With `COc1ccc(CC(N)c2csc(NC(=O)c3cc(C(C)(C)C)oc3C)n2)cc1` (configuration not stated), the IC90 worked out at 4.39 µM. The negative-log IC50 (pIC50) under setting [1] is 5.54.
As to `Fc1ccc(-c2csc3ncnc(NCc4ccc(CN5CCOCC5)cc4)c23)cc1`, the IC90 turned out to be 7.44 µM. Where the note is “HEPG2TOX_HILL_SLOPE 0.615, HEPG2TOX_R_SQUARED 0.878, PBLUC_HILL_SLOPE 1.43, PBLUC_R_SQUARED 0.575, read-out: LUCIFERASE INFECTION ASSAY - IC50”, the pIC50 was 5.80.
Consider `O=C(Nc1c2ccccc2nc2ccccc12)c1[nH]nc2c1CCCC2`, for which the IC90 came out at 4.07 µM. Besides, under “HEPG2TOX_HILL_SLOPE 2.71, HEPG2TOX_R_SQUARED 0.934, PBLUC_HILL_SLOPE 11.2, PBLUC_R_SQUARED 0.297, read-out: LUCIFERASE INFECTION ASSAY - IC50”, the pIC50 is 5.48.
Turning to `O=C(c1cnc2ccc3ccccc3c2c1)c1cc(F)ccc1O`, the IC90 is more than 10 µM. The negative logarithm of the IC50 (pIC50) (HEPG2TOX_HILL_SLOPE 3.61, HEPG2TOX_R_SQUARED 0.979, PBLUC_HILL_SLOPE 3.48, PBLUC_R_SQUARED 0.782, read-out: LUCIFERASE INFECTION ASSAY - IC50) was 5.27.
`COc1cc2c(cc1/C=C/C(=O)N(Cc1nc(=O)c3ccccc3[nH]1)CC1CCCO1)OC(C)C2` (configuration not stated): the IC90 was more than 10 µM. Also, the negative-log IC50 (pIC50) under setting [1] was less than 5.00.
Turning to `O=C(OCc1ccccc1)C1=C2Sc3ccccc3N2C(=O)NC1(c1ccccc1)C(F)(F)F` (configuration not stated), the IC90 is more than 10 µM. Further, the negative-log IC50 (pIC50) (FFLUC_HILL_SLOPE 11.9, FFLUC_R_SQUARED 0.439, PBLUC_HILL_SLOPE 2.55, PBLUC_R_SQUARED 0.528, read-out: LUCIFERASE INFECTION ASSAY - IC50) was 5.17.
Turning to `COc1cc(C(=O)NCC(c2ccco2)N2CCCCC2)ccc1Oc1ccc(Cl)cc1[N+](=O)[O-]` (configuration not stated), the 90% effect concentration (IC90) is more than 10 µM. The pIC50 under setting [1] was 5.23.
`COc1ccc(-c2cnc3ccc(NCc4ccc(F)cc4)nn23)cc1`: the IC90 is 3.94 µM. In addition, for the setting “HEPG2TOX_HILL_SLOPE 2.12, HEPG2TOX_R_SQUARED 0.979, PBLUC_HILL_SLOPE 9.57, PBLUC_R_SQUARED 0.534, read-out: LUCIFERASE INFECTION ASSAY - IC50”, the pIC50 was 5.50.
`Cc1cc(C)c(S(=O)(=O)N2CCN(C(=O)/C(=C/c3cccc(F)c3)n3nnnc3C)CC2)c(C)c1`: the IC90 is 3.73 µM. Also, the pIC50 under setting [1] was 5.79.
The matching figures for `OCCCNc1nn2c(-c3cccc(F)c3)cnc2s1`: more than 11.3 µM and less than 4.95.
`Cc1ccc(CSc2nc(C)c(Oc3ccc(F)cc3)c(=O)n2C)cc1`: the IC90 was more than 8.91 µM. Besides, the pIC50 under setting [1] was less than 5.05.
Regarding `O=C(Nc1nc2cc(C(F)(F)F)ccc2n1Cc1ccco1)C1CCC1`, the concentration for an effect of 90% (IC90) was determined as 4.08 µM. The pIC50 (PBLUC_HILL_SLOPE 12.7, PBLUC_R_SQUARED 0.404, read-out: LUCIFERASE INFECTION ASSAY - IC50) was 5.46.
Consider `COc1cccc(CN2CCN3C(C(=O)Nc4ccc(F)c(Cl)c4)=COC3=NC2=O)c1`, for which the concentration for an effect of 90% (IC90) was more than 10 µM. The pIC50 (HEPG2TOX_HILL_SLOPE 1.28, HEPG2TOX_R_SQUARED 0.654, PBLUC_HILL_SLOPE 1.61, PBLUC_R_SQUARED 0.572, read-out: LUCIFERASE INFECTION ASSAY - IC50) was 5.50.
In the case of `COc1ccc(C(NCc2cccc3ccccc23)C2CC2)cc1` (configuration not stated), the IC90 is more than 10 µM. The pIC50 under setting [1] is less than 5.00.
Consider `CCCOc1ccc(/C=C/C(=O)Nc2ccc(Br)c(C(F)(F)F)c2)cc1OCC`, for which the IC90 is more than 10 µM. For the same compound, the pIC50 (FFLUC_HILL_SLOPE 178, FFLUC_R_SQUARED 0.15, HEPG2TOX_HILL_SLOPE 0.174, HEPG2TOX_R_SQUARED 0.586, PBLUC_HILL_SLOPE 2.73, PBLUC_R_SQUARED 0.361, read-out: LUCIFERASE INFECTION ASSAY - IC50) is 5.10.
On to `FC(F)(F)c1cccc(-c2ccc3ncc(-c4ccc5c(c4)OCO5)n3n2)c1`, for which the 90% effect concentration (IC90) is more than 10 µM. For the same compound, under setting [1], the negative-log IC50 (pIC50) is less than 5.00.
On to `Cc1nn2c(nc(N3CCCC3)c3ccccc32)c1C=C1C(=O)NC(=S)NC1=O`, for which the 90% effect concentration (IC90) is 5.31 µM. For the same compound, under “HEPG2TOX_HILL_SLOPE 1.87, HEPG2TOX_R_SQUARED 0.941, PBLUC_HILL_SLOPE 2.44, PBLUC_R_SQUARED 0.519, read-out: LUCIFERASE INFECTION ASSAY - IC50”, the pIC50 was 5.67.
`Cc1ccc(NC(=O)c2cc(-c3cc(Cl)ccc3C)[nH]n2)cc1NS(C)(=O)=O`: the IC90 was 7.29 µM. Further, the pIC50 (PBLUC_HILL_SLOPE 10.6, PBLUC_R_SQUARED 0.45, read-out: LUCIFERASE INFECTION ASSAY - IC50) is 5.23.
For `O=C(Nc1ccc(Cl)cc1)/C(=C/c1ccc([N+](=O)[O-])cc1)c1nc2ccccc2s1`, the 90% effect concentration (IC90) is more than 10 µM. Further, the pIC50 (PBLUC_HILL_SLOPE 3.91, PBLUC_R_SQUARED 0.341, read-out: LUCIFERASE INFECTION ASSAY - IC50) is 5.12.
`C=C(C)COc1ccc(-c2onc(C)c2-c2ccc(OC)c(OC)c2)c(O)c1`: the IC90 is 7.35 µM. Also, under setting [1], the pIC50 is 6.19.
Take `Cc1cc(C)c(C2C3=C(Nc4c2c(C)nn4-c2ccccn2)c2ccccc2C3=O)c(C)c1` (configuration not stated): the 90% effect concentration (IC90) was more than 10 µM. Moreover, the negative-log IC50 (pIC50) (FFLUC_HILL_SLOPE 11.5, FFLUC_R_SQUARED 0.374, PBLUC_HILL_SLOPE 1.59, PBLUC_R_SQUARED 0.668, read-out: LUCIFERASE INFECTION ASSAY - IC50) is 5.29.
Take `Clc1ccc(-c2csc3ncnc(NCc4ccco4)c23)cc1`: the concentration for an effect of 90% (IC90) is more than 10 µM. The pIC50 under setting [1] was less than 5.00.
The matching figures for `O=C(NNC(=O)c1ccccc1F)c1ccc(N2CCCC2=O)cc1`: more than 10 µM and less than 5.00.
`O=S(=O)(C1=Cc2ccccc2CC1)N1CCOC2CCCCC21` (configuration not stated): the concentration for an effect of 90% (IC90) was more than 10 µM. For the same compound, the pIC50 under setting [1] was less than 5.00.
Regarding `COc1ccc(O)c(/C=N/Nc2ncc(C(F)(F)F)cc2Cl)c1`, the IC90 was 3.73 µM. Besides, the pIC50 (HEPG2TOX_HILL_SLOPE 3.8, HEPG2TOX_R_SQUARED 0.813, PBLUC_HILL_SLOPE 18.3, PBLUC_R_SQUARED 0.305, read-out: LUCIFERASE INFECTION ASSAY - IC50) was 5.48.
Consider `CSc1sc(-c2ccn(S(=O)(=O)c3ccc(Cl)c(Cl)c3)n2)c2c1C(=O)CC(C)(C)C2`, for which the concentration for an effect of 90% (IC90) was more than 6.58 µM. Besides, the pIC50 under setting [1] was less than 5.18.
